US20050003367A1, “Methods and compositions for rapid development of screening assays” (priority 2002, published 2005)
Entries after “also recorded” stand apart in the source; their conditions may differ.

Tests used:
PPARγ = molecular target: T1, PPARγ (Homo sapiens, UniProt P37231); test: PPARγ Gal4-DBD UAS β-lactamase reporter assay, HEK293 clone 4G5; format: cell-based; conditions: 10 μM or 32 μM BADGE 1 h at 37° C. before rosiglitazone 1 nM-10 μM
T1 construct: expressed in transfected cells; host or cells: HEK293 7xUAS-β-lactamase line (HEKUASBLA), clone 4G5; The targeting vector was integrated by homologous recombination
T1 sequence (P37231 238-503 limits assumed): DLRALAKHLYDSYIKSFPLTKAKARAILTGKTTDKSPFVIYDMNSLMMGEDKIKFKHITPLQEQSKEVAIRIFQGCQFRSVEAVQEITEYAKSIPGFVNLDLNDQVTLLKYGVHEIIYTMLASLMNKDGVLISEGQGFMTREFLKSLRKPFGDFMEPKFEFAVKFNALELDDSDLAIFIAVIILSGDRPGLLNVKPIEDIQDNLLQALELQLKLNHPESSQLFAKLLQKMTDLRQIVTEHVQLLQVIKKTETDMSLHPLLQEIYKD
Procedure: (§1) Unless otherwise noted, β-lactamase reporter expression was determined by plating cells into 96 well plates at approx. 10^5 cells/well, and loading with 1 μM CCF2-AM in Hanks' balanced salt solution (HBSS) containing phenol red at 22 ° C. for a period between 1 and 2 h. For visual determination, an epifluorescence microscope (Zeiss 25CFL) equipped with a 10× Fluor objective was used. The filter set contained a 405/20 exciter, a 420 dichroic mirror, and a 435 long-pass filter (Chroma Technologies, Brattleboro Vt.). Fluorescence was then quantified on a Cytofluor 4000 fluorescence plate reader using 395/12.5 nm excitation and emission was detected via 460/50 (blue) and 535/40 (green) band pass filters. Emission intensities from blank wells containing no cells were subtracted from wells containing cells. Calibration of β-lactamase enzyme levels were determined in cell lysates as described by Zlokarnik et al.(1998) Science 279 84-88. Replicate samples of cells were lysed by three cycles of freeze thawing in PBS. β-Lactamase activity in the lysate was measured from the rate of hydrolysis of 1 nmol of CCF2 in 100 μl in a Cytofluor fluorimeter. […]
Single cells were sorted into 96 well plates and expanded. […] At least 16 h before the assay, cell clones on one copy of the assay plates were stimulated as described above. β-lactamase activity was detected in individual clones as described in Example 6. […]

[1] = molecular target: T2, Mineralocorticoid receptor (MR) (Homo sapiens, UniProt P08235); test: MR Gal4-DBD UAS β-lactamase reporter assay, HEK/UAS/GAL4-MR clone 1B4; format: cell-based
T2 construct: expressed in transfected cells; host or cells: HEK293 7xUAS-β-lactamase line (HEKUASBLA), clone 1B4. pKI-Gal4-DBD-MR was integrated by homologous recombination
T2 sequence (P08235 726-964 limits assumed): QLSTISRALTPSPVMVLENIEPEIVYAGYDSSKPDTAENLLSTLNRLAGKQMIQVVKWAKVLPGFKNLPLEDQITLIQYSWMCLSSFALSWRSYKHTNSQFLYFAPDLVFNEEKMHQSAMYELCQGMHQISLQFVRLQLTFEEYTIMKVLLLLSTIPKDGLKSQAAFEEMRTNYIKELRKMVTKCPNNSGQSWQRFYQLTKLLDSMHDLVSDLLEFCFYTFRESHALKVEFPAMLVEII

[2] = molecular target: T3, Vanilloid Receptor-1 (VR1) (Homo sapiens, UniProt Q8NER1); test: VR1 calcium response assay in HEK-293 clones (VIPRII, 96-well); format: cell-based; conditions: for IC50: responses to 10 μM capsaicin, capsazepine 0.01-100 μM
T3 construct: endogenous in cells; host or cells: HEK-293 clones 5B11 and 5B5

MC4R = molecular target: T4, MC4R (Homo sapiens, UniProt P32245); test: MC4R CRE β-lactamase reporter assay in HEK 293 (P3D8) MC4 cell lines; format: cell-based; conditions: cells pretreated with the MC4 antagonist
T4 construct: endogenous in cells; host or cells: HEK 293 P3D8 (4XCRE-β-lactamase reporter) clones, e.g. MC4.49
Procedure: as §1
Three out of the eight characterized MC4 cell lines were chosen for further pharmacological characterization that included a dose response curve with NDP-α-MSH. […] The calculated values were consistent with published data. […]

[3] = cited from earlier work

T3 sequence (Q8NER1 whole entry): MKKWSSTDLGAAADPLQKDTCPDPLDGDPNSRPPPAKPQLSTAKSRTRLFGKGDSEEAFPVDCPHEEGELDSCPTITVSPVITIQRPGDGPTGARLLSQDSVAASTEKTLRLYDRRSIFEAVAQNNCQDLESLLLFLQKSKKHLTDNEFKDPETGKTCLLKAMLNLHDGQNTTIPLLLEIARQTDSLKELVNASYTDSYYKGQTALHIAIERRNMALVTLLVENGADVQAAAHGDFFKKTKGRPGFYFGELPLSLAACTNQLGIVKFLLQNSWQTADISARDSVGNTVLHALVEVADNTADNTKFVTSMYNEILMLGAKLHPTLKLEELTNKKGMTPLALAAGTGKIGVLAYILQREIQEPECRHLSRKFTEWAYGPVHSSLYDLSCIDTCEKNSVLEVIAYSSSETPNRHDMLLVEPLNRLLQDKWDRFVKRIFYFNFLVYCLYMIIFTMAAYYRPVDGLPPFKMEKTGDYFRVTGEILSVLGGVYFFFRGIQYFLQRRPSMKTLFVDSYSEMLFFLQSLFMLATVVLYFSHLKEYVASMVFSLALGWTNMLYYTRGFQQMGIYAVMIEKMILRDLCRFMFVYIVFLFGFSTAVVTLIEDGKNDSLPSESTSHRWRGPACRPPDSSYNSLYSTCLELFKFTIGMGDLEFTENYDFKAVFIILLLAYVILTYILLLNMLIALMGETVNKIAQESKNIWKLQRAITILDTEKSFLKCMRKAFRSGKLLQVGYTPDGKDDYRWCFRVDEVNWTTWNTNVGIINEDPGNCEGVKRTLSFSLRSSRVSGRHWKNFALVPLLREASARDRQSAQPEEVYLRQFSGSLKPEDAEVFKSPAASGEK
T4 sequence (P32245 whole entry): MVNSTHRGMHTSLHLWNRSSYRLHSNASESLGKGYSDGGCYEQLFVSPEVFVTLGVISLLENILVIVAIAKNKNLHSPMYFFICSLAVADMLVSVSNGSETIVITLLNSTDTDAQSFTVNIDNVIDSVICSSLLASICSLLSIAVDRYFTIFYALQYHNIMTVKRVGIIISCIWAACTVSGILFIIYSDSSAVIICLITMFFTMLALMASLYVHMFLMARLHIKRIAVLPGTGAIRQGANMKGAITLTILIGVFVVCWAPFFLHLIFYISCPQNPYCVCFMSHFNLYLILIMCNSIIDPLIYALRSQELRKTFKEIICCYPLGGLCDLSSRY

## CC(C)(c1ccc(OCC2CO2)cc1)c1ccc(OCC2CO2)cc1 (centres unmarked) [BADGE]
PPARγ
  inhibition of cell response to rosiglitazone: Inhibition of the cell response to the stimuli

## C[C@]12CCC(=O)C=C1CC[C@@H]1[C@@H]2[C@@H](O)C[C@@]2(C)[C@H]1CC[C@]2(O)C(=O)CO [Cortisol]
[1]
  EC50: 0.004 µM

## Oc1cc2c(cc1O)CN(C(=S)NCCc1ccc(Cl)cc1)CCC2 [capsazepine]
[2]; 50 μM capsazepine, clones 5B11 and 5B5
  effect on VR1 responses to capsaicin: failed to respond to any concentration of capsaicin; also recorded: inhibited
[2]; clone 5B5
  IC50: 7.1 µM
[2]; clone 5B11
  IC50: 12.8 µM

## C=C(C)[C@]12C[C@@H](C)[C@@]34O[C@](Cc5ccccc5)(O[C@@H]1[C@@H]3C=C(COC(=O)Cc1ccc(O)c(OC)c1)C[C@]1(O)C(=O)C(C)=C[C@@H]41)O2 [resiniferatoxin]
[2]
  EC50: 0.427 µM

## HS024
MC4R
  inhibition of the response to α-MSH or NDP-α-MSH: inhibited in a concentration-dependant manner

## SNARF-4F carboxylic acid
[3]
  pKa: ~6.4
